Reference: US20220008451A1, “FLAVIN ADENINE DINUCLEOTIDE (FAD) FOR USE IN THE PREVENTION AND/OR TREATMENT OF CANCER” (priority 2018, published 2022)

Legend:
MIA Paca-2 cells = assay: MIA Paca-2 MTT viability test; assay type: cell-based, human; conditions: 120 μM/L, 2 hours
Procedure: (§1) MIA Paca-2 cells are human pancreatic cancer cells [American Tissue Cell Culture (ATCC, Manassas, Va., USA)] cultured in DMEM medium. The MTT viability test is performed at a cell density of 0.1×10*6 cells/mL. The tested products are incubated for 2 hours at a concentration of 120 μM/L and in triplicate, with culture control (ref: Blank) (100%) and a positive DMSO control (5%). Under these conditions, cell viability is 34% in the presence of FAD alone, 6% with FAD-PEG.

[1] = test system: Monocytes isolated from peripheral blood (PBMC); assay: Viability of non-cancerous peripheral blood monocytes (PBMC); assay type: cell-based
[2] = test system: CEM (myeloid leukaemia) cells; assay: Viability of CEM myeloid leukaemia cells; assay type: cell-based; conditions: 48 hours incubation; read-out: mean IC50, viability of cancer cells in the lineage
cancer cells in culture = assay: Growth inhibition of cancer cells in culture; assay type: cell-based; conditions: read-out: inhibitory concentration (IC50) reducing growth of cancer cells in culture by 50%
[3] = test system: Nucleo PyroPhosphatase enzyme; assay: Protection of FAD against Nucleo PyroPhosphatase hydrolysis (HPLC); assay type: in vitro ADME; conditions: 25° C.
Procedure: FAD protection in particles in comparison with unbound FAD is studied. Different particles containing FAD are compared to unbound FAD: • The FAD encapsulated with a gold FAD-PEG particle ON is obtained by the ON method described in example 2. • The FAD encapsulated with a gold-FAD-PEG particle IN is obtained by the IN method obtained in example 1. The different particles and the unbound FAD are each placed in a solution of the Nucleo PyroPhosphatase enzyme at 25° C. The concentration of the FAD is monitored over time by HPLC assay.

[4] = test system: HT22 cells (murine brain tumour); assay: HT22 growth inhibition, MTS test; assay type: cell-based
Procedure: HT22 cells (murine brain tumour) are tested with the gold-FAD-PEG particle obtained by the IN method.

[5] = MIA Paca-2 MTT viability test; assay type: cell-based, human; conditions: human, MIA Paca-2 cells, read-out: cell viability
Procedure: as §1

[6] = Resistance to hydrolysis in serum; assay type: in vitro ADME; conditions: 20 hours
Procedure: A comparative hydrolysis test of unbound FAD and micrometer-sized FAD-PEG obtained in Example 7 is performed in serum to test resistance to enzymes.

[7] = test system: HT-1080 fibrosarcoma cells; assay: Viability of HT-1080 cells; assay type: cell-based; conditions: Homo sapiens
[8] = test system: HepG2 hepatocellular carcinoma; assay: Viability of HepG2 cells; assay type: cell-based; conditions: Homo sapiens
Huh-7replicon = assay: Viability of Huh-7replicon cells; assay type: cell-based
[9] = test system: MiaPaCA2 pancreatic cancer; assay: Viability of MiaPaCA2 cells (Example 14); assay type: cell-based
DNA aptamer = assay: Intercalation in DNA aptamer grafted on gold nanoparticles; assay type: binding; conditions: 5 mg/ml, UV visible and RAMAN
Description: Small molecules with aromatic structures are intercalated into DNA, which is the case of some extremely powerful and effective drugs. The hypothesis that FAD intercalates into DNA has been tested using a DNA aptamer grafted onto the surface of nanoparticles (NP).
The aptamer used is a single-stranded, thiolated DNA sequence of formula 5′HS-TT TTTTTTTTTTTTTTCTTCTCTAGCTGAATAACCGGAAGTAACTCATCGTTTCGATGAGTTACTTCCGGTTATTCAGCTAGAGAAG 3′, grafted to the surface of gold nanoparticles in the presence of a catalyst agent (N-[3-(dimethylamino) propyl]-N′-ethylcarbodiimide/N-hydroxysuccinimide, Sigma-Aldrich) (EDC/NHS), 50 μL, of DNA with a ratio (40 mg/10 mg) to 5 ml of gold NP solution, to allow activation of the carboxylic group (PEG-COOH) on the surface of the nanoparticles for immobilisation of the aptamer by covalent bonds. The bond is made between the carboxyl group of the EDC/NHS-activated PEG and the NH2 groups of the aptamer.
The grafting of the DNA on the surface of the gold nanoparticles is verified by UV spectroscopy (UV-visible absorbance measurements).
The particles were then placed in the presence of FAD or FAG-PEG (5 mg/ml, two formulations) and DNA intercalation, detected and measured by two techniques: UV visible and by RAMAN spectroscopy.

[10] = test system: murine breast cancer cell line 4T1; assay: 4T1 breast cancer model in mice; assay type: in vivo, BALB/c mice; conditions: compared to control groups
[11] = test system: Mouse HEP 1-6 liver cancer cells; assay: HEP 1-6 liver cancer model in mice; assay type: in vivo
[12] = test system: MCF7 (breast cancer) cancer cells; assay: MCF7 growth inhibition, MTS test; assay type: cell-based; conditions: 48 hours
Procedure: Growth inhibition of MCF7 (breast cancer) cancer cells is tested on MCF7 cells in culture for 48 hours in contact with the gold-FAD-PEG particle with or without a targeting agent obtained by the IN method. […] (Promega—Cell Titer Proliferation Assay).

Compound: C[S+](C)[O-] [DMSO, reference compound]
- cell viability (MIA Paca-2 cells): 5%

Compound: Cc1cc2nc3c(=O)[nH]c(=O)nc-3n(CC(O)C(O)C(O)COP(=O)(O)OP(=O)(O)OC[C@H]3O[C@@H](n4cnc5c(N)ncnc54)C(O)C3O)c2cc1C (stereo partly drawn) [FAD, Flavin Adenine Dinucleotide]
- IC50 ([1]; 48 hours incubation, read-out: IC50, viability of primary non-cancerous cells): > 100 µM
- GI50 ([1]; normal blood monocytes PBM cells): > 100 µM
- IC50 [2]: 1600 nM
- IC50 (cancer cells in culture): 500 to 5000 nM
- time to full hydrolysis of FAD [3]: ≤ 15 min
- IC50 ([4]; Mus musculus, HT-22, Example 14, read-out: IC50, viability of HT22 neuronal cancer cells): 1600 nM
- viability at 2 hours, 120 μM/L [5]: 34%
- hydrolysis in serum [6]: almost completely hydrolyzed
- IC50 [7]: 1100 to 1800 nM
- IC50 [8]: 1100 to 1800 nM
- IC50 (Huh-7replicon): 1100 to 1800 nM
- viability of the cells ([9]; 90 μM, 24 hours of exposure): significantly altered
- IC50 ([9]; Homo sapiens, MIA PaCa-2, MiaPaCA2): 10 µM
- DNA intercalation (DNA aptamer): intercalates to DNA
- IL-10 content [10]: significantly increased
- level of IL-1α [10]: significantly reduced
- level of IL-1 β [10]: significantly reduced
- level of IL-6 [10]: significantly reduced
- level of IL-12P70 [10]: significantly reduced
- level of TNF α [10]: significantly reduced
- reduction in tumour volume [11]: 24%

Compound: CN[C@@H]1C[C@H]2O[C@@](C)([C@@H]1OC)n1c3ccccc3c3c4c(c5c6ccccc6n2c5c31)C(=O)NC4 [staurosporin, reference compound]
- GI50 [12]: ~40 µM
- GI50 ([4]; read-out: 50% growth inhibition (GI 50), 48 hours, MTS): 2700 nM
